Data published in article PMC10385743.
Several values for one entry are separate records, joined by “and”; a condition that tells them apart may be missing. Equal entries are not always repeated. Where two headings read alike, the source gives them in different places.

Legend:
[1] = system: T. cruzi (CL Brener strain) epimastigotes; assay: microbe, parasite or virus in culture; conditions: Trypanosoma cruzi; for EC50: read-out: T. cruzi EC50
[2] = Cytotoxicity in Huh5-2 replicon cells (intracellular ATP levels); conditions: human
[3] = system: HCV GT 3a (strain S52) subgenomic replicon; assay: microbe, parasite or virus in culture; assay type: cell-based, hepatitis C virus; conditions: 72 h, luciferase, mean ± SD, read-out: Huh7.5-3a(S52) (HCV Replicon 3a) EC50
[4] = system: bloodstream form T. b. brucei (strain 221); conditions: for SI (CC50 for L6 cells / EC50 for T. brucei): selectivity index; for EC50: read-out: T. brucei EC50
[5] = system: rat skeletal myoblast L6 cells; assay: Cytotoxicity against cultured L6 cells (resazurin); conditions: read-out: L6 Cells CC50; mean of triplicate experiments ± SEM
[6] = Cytotoxicity against cultured L6 cells (resazurin); conditions: rat, L6 rat skeletal myoblast cells, L6 Cells CC50, mean of triplicate experiments ± SEM
[7] = system: HCV GT 1b (Con1); assay: Combinatory activity of 34 with daclatasvir (DCV) in Huh5-2 replicon cells, F-Luc activity; assay type: cell-based, hepatitis C virus
Procedure: The Huh5-2 replicon cell line was treated with compound 34 in the presence or absence of daclatasvir (DCV) to test its effectiveness in combination with an authorized NS5A inhibitor (DCV) (Figure 6).
Figure 6 Combinatory activity of 34 with DCV against HCV GT 1b (Con1). Huh5-2 cells were treated or not with the analog in the presence or absence of 20 pM DCV. F-Luc activity was measured and calculated as relative light units (RLU) per μg of total protein. […] CDI: coefficient of drug interaction. […] Error bars represent standard deviation (SD). TEXT PRINTED IN THE PICTURE: DCV + 34: CDI: 1.09 (1μM); CDI: 0.91 (2μM)

[8] = system: HCV GT 4a (strain ED43) subgenomic replicon; assay: microbe, parasite or virus in culture; assay type: cell-based, hepatitis C virus; conditions: for EC50: 72 h, luciferase, mean ± SD, read-out: Huh7.5-4a(ED43) (HCV Replicon 4a) EC50
[9] = system: YFV (strain 17D) subgenomic replicon; assay: microbe, parasite or virus in culture; assay type: cell-based, yellow fever virus; conditions: 72 h, read-out: Huh7-YF (YFV Replicon 17D) EC50
[10] = system: DENV serotype 2 (strain 16681) subgenomic replicon; assay: microbe, parasite or virus in culture; assay type: cell-based, dengue virus; conditions: 72 h, luciferase, mean ± SD, read-out: Huh7-D2 (DENV-2 Replicon) EC50
[11] = system: HCV GT1b (Con1) replicon RNA; conditions: Hepatitis C virus, Huh-5-2, read-out: HCV RNA EC50
[12] = system: bloodstream form T. b. brucei (strain 221); assay: microbe, parasite or virus in culture; conditions: Trypanosoma brucei, mean of triplicate experiments ± SEM; for EC50: read-out: T. brucei EC50, cultured bloodstream form; for EC90: read-out: T. brucei EC90, cultured bloodstream form
[13] = system: Huh5-2 cells; assay: Cytotoxicity in Huh5-2 replicon cells (intracellular ATP levels); conditions: read-out: Huh5-2 (HCV Replicon 1b) CC50; 72 h; ATP levels; mean ± SD; * highest concentration used 10 μΜ
[14] = system: T. cruzi (CL Brener strain) epimastigotes
[15] = system: HCV; set-up: method as in doi:10.1039/C5MD00439J; conditions: read-out: Antiviral activity (Hepatitis C) EC50; cited from earlier work
[16] = system: T. cruzi (CL Brener strain) epimastigotes; set-up: method as in PMID 31303998; conditions: lead compound; cited from earlier work
[17] = system: Huh5-2 cells; set-up: method as in PMID 31303998; conditions: lead compound; read-out: Huh5-2 (HCV Replicon 1b) CC50; cited from earlier work
[18] = system: HCV GT 4a (strain ED43) subgenomic replicon; set-up: method as in PMID 31303998; conditions: lead compound; read-out: Huh7.5-4a(ED43) (HCV Replicon 4a) EC50; cited from earlier work
[19] = system: bloodstream form T. b. brucei (strain 221); conditions: cited from earlier work
[20] = system: rat skeletal myoblast L6 cells; set-up: method as in PMID 31303998; conditions: lead compound; cited from earlier work
[21] = system: HCV GT 3a (strain S52) subgenomic replicon; set-up: method as in PMID 31303998; conditions: lead compound; read-out: Huh7.5-3a(S52) (HCV Replicon 3a) EC50; cited from earlier work
[22] = system: DENV serotype 2 (strain 16681) subgenomic replicon; set-up: method as in PMID 31303998; conditions: lead compound; read-out: Huh7-D2 (DENV-2 Replicon) EC50; cited from earlier work
[23] = cultured bloodstream form, mean of triplicate experiments ± SEM

With CC1CCC2(NC(=O)N(CC(=O)NO)C2=O)c2ccccc21 [Compound 34, Ν-(hydroxy)-2-((4R,4′S)/(4S,4′R)-4′-methyl-2,5-dioxo-3′,4′-dihydro-2′H-spiro[imidazolidine-4,1′-naphthalene]-1-yl)acetamide] as the molecule, how does the EC50 [1] read?
The EC50 was over 30 µM.

What about the CC50 at 72 h [2] of the same molecule?
Its CC50 at 72 h is over 200 µM.

And the EC50 ([3]; Hepatitis C virus, GT3A)?
The EC50 was 0.63 ± 0.08 µM.

And the “SI (CC50 for L6 cells / EC50 for T. brucei)” value [4]?
Its value is 335.

What about the CC50 [5] of the same molecule?
Its CC50 is 224 ± 20 µM.

What about the CC50 at 6 days [6] of the same molecule?
Its CC50 at 6 days is over 200 µM.

And the CDI ([7]; 1 μM 34 with 20 pM DCV)?
The CDI was 1.09.

What about the CDI ([7]; 2 μM 34 with 20 pM DCV) of the same molecule?
The CDI was 0.91.

What about the “coefficient of drug interaction (CDI)” value ([7]; 34 in combination with daclatasvir (DCV)) of the same molecule?
Its value is “≈ 1”.

And the “fold more active against GT 4a than lead molecule V” value [8]?
The value was 2.5 fold.

What about the EC50 [8] of the same molecule?
Its EC50 is 0.14 ± 0.01 µM.

And the EC50 ([9]; Yellow fever virus)?
The EC50 was over 10 µM.

And the EC50 ([10]; Dengue virus, DENV2)?
The EC50 was over 10 µM.

And the EC50 [11]?
The EC50 was 0.726 µM.

And the EC50 [12]?
Its EC50 is 0.67 ± 0.09 µM.

What about the EC90 [12] of the same molecule?
The EC90 was 0.92 ± 0.23 µM.

Which results are given for CC1CCC2(NC(=O)N(CC(=O)NO)C2=O)c2ccccc21 [Compound 35, Ν-(Hydroxy)-2-((4R,4′R)/(4S,4′S)-4′-methyl-2,5-dioxo-3′,4′-dihydro-2′H-spiro[imidazolidine-4,1′-naphthalene]-1-yl)acetamide]?
CC50 [13]: > 200 µM; EC50 [3]: 0.77 ± 0.03 µM; EC50 [4, 23]: 0.56 ± 0.07 µM; EC90 ([4]; read-out: T. brucei EC90, cultured bloodstream form, mean of triplicate experiments ± SEM): 0.86 ± 0.19 µM; SI (CC50 for L6 cells / EC50 for T. brucei) [4]: 400; CC50 [5]: > 200 µM and 224 µM; EC50 [8]: 0.41 ± 0.02 µM; EC50 ([9]; luciferase, mean ± SD): > 10 µM; EC50 [10]: > 10 µM; EC50 ([14]; read-out: T. cruzi EC50, epimastigotes, mean of triplicate experiments ± SEM): > 30 µM

Which results are given for O=C(CN1C(=O)NC2(CCCCC2c2ccccc2)C1=O)NO (stereo not shown) [Compound 37, N-Hydroxy-2-(2,4-dioxo-6-phenyl-1,3-diazaspiro [4.5]decan-3-yl) acetamide]?
EC50 [1]: > 30 µM; CC50 at 72 h [2]: > 10 µM; EC50 ([3]; Hepatitis C virus, GT3A): > 10 µM; T. brucei EC50 fold higher than that of 36 ([4]; 2-phenyl versus 4-phenyl cyclohexane ring): 5 fold; SI (CC50 for L6 cells / EC50 for T. brucei) [4]: 55; CC50 [5]: 246 ± 3 µM; CC50 at 6 days [6]: > 200 µM; EC50 ([8]; Hepatitis C virus, GT4A): > 10 µM; EC50 ([9]; Yellow fever virus): > 10 µM; EC50 ([10]; Dengue virus, DENV2): > 10 µM; EC50 [12]: 4.41 ± 0.22 µM; EC90 [12]: 5.92 ± 0.09 µM

Which EC50 [1] does the source give for CC(C(=O)NO)N1C(=O)NC2(CCC(c3ccccc3)CC2)C1=O (stereo not shown) [Compound 49, N-(Hydroxy)-2-(2,4-dioxo-8-phenyl-1,3-diazaspiro [4.5]decan-3-yl)propanamide] here?
Its EC50 is over 30 µM.

And the CC50 at 72 h [2]?
The CC50 at 72 h was over 10 µM.

And the EC50 ([3]; Hepatitis C virus, GT3A)?
The EC50 was over 10 µM.

What about the EC50 [4, 23] of the same molecule?
Its EC50 is 0.876 ± 0.051 µM.

What about the “SI (CC50 for L6 cells / EC50 for T. brucei)” value [4] of the same molecule?
The value was 270.

And the CC50 [5]?
Its CC50 is 233 ± 33 µM.

And the CC50 at 6 days [6]?
Its CC50 at 6 days is over 200 µM.

And the EC50 ([8]; Hepatitis C virus, GT4A)?
Its EC50 is over 10 µM.

What about the EC50 ([9]; Yellow fever virus) of the same molecule?
The EC50 was 7.98 ± 0.18 µM.

And the EC50 ([10]; Dengue virus, DENV2)?
Its EC50 is over 10 µM.

What about the EC50 [12] of the same molecule?
The EC50 was 0.88 µM.

What about the EC90 [12] of the same molecule?
Its EC90 is 1.42 ± 0.19 µM.

What does the source list for CC(C(=O)NO)N1C(=O)N(C)C2(CCC(c3ccccc3)CC2)C1=O (stereo not shown) [Compound 53, N-(hydroxy)-2-(1-methyl-2,4-dioxo-8-phenyl-1,3-diazaspiro [4.5]decan-3-yl)propanamide]?
EC50 [1]: 8.5 ± 0.23 µM; EC90 ([1]; read-out: T. cruzi EC90): 11.9 ± 0.5 µM; CC50 at 72 h [2]: 100 ± 3.57 µM; EC50 ([3]; Hepatitis C virus, GT3A): > 10 µM; SI (CC50 for L6 cells / EC50 for T. brucei) [4]: 590; CC50 at 6 days [6]: 90.5 ± 7.3 µM; EC50 ([8]; Hepatitis C virus, GT4A): 0.28 ± 0.02 µM; EC50 ([9]; Yellow fever virus): > 10 µM; EC50 ([10]; Dengue virus, DENV2): 2.45 ± 0.22 µM; SI (CC50 for L6 cells / EC50 for T. cruzi) ([14]; selectivity index): 11; EC50 [12]: 0.154 ± 0.009 µM; EC90 [12]: 0.281 ± 0.006 µM

With O=C1Cn2c(cc3ccccc32)C(=O)N1O [I] as the molecule, how does the EC50 [15] read?
The EC50 was 126 ± 14.2 µM.

With O=C(CN1C(=O)NC2(CCCc3ccccc32)C1=O)NO (stereo not shown) [V] as the molecule, how does the EC50 [16] read?
The EC50 was over 30 µM.

What about the EC90 [16] of the same molecule?
The EC90 was over 30 µM.

And the CC50 [17]?
Its CC50 is over 200 µM.

And the EC50 [18]?
Its EC50 is 0.38 ± 0.04 µM.

And the EC50 ([19]; earlier lead compounds, read-out: T. brucei EC50)?
The EC50 was 0.71 ± 0.12 µM.

And the EC90 ([19]; lead compound)?
The EC90 was 1.27 ± 0.02 µM.

And the “SI (CC50 for L6 cells / EC50 for T. brucei)” value ([19]; lead compound)?
The value was 590.

And the CC50 [20]?
The CC50 was 419 ± 55 µM.

And the EC50 [21]?
The EC50 was 2.37 ± 0.17 µM.

What about the EC50 [22] of the same molecule?
Its EC50 is 61.5 ± 3.86 µM.
